From patent US8771733B2, “Pharmaceutical composition containing an anti-nucleating agent” (Merck Sharp & Dohme Corp., priority 2004, dated 2014)
Where a name gives a salt, the structure may show the parent alone.

Assays:
[1] = In vitro dissolution studies with bulk drug and granules at 37° C.; format: physicochemical; conditions: dissolution times of 60 to 180 minutes
Procedure: The dissolution properties of tablets prepared in the manner described in Part A of Example 3 (i.e., tablets containing 100 mg of Compound A on a free phenol basis and 0, 5, 10 or 15 wt. % HPMC) were tested in the following manner: Two tablets containing 0, 5, 10, or 15 wt. % HPMC were added to a USP Type II dissolution vessel containing 500 mL of 0.01 N HCl (pH=2) as the dissolution medium (ambient temperature). After the tablets were allowed to sink to the bottom of the vessel, the medium was stirred at 100 rpm for 60 minutes and then at 150 rpm for up to an additional 120 minutes. Samples (5 mL) were removed from medium at 5, 10, 15, 20, 30, 60, 90 and 120 minutes and at the conclusion of the test (180 minutes). Each sample was diluted 1:1 with 50:50 (volume:volume) acetonitrile:water, and then analyzed via HPLC or W spectrophotometry to determine the concentration of Compound A in the solution. (Note: The HPLC and UV methods were determined to be equivalent; the choice of method for a particular test was based on such factors as equipment availability.)
In vitro dissolution studies similar to the study described above, but conducted with unformulated bulk Compound A K salt and formulated bulk in granules and conducted at 37° C.

[2] = Hygroscopicity (vapor sorption analysis); format: physicochemical
Procedure: Hygroscopicity data was obtained on a VTI Symmetrical Vapor Sorption Analyzer Model SGA-1. Data was collected at room temperature from 5-95% relative humidity and back, 5% relative humidity change per step. Equilibrium conditions were 0.01 weight percent change in 5 minutes with a maximum equilibration time of 180 minutes.

## Cc1nnc(C(=O)NC(C)(C)c2nc(C(=O)NCc3ccc(F)cc3)c(O)c(=O)n2C)o1 [Compound A K salt]
[1]
  enhancement in drug solubility in the presence of HPMC versus absence of HPMC: 10 fold
[2]; 5% RH, after 95% RH
  weight when equilibrated back down to 5% RH: returned back to approximately its dry weight
[2]; 95% RH at 25° C.
  weight increase when equilibrated at 95% RH: 1.8%
[2]; after 5-95% RH and back
  XRPD analysis of the material after the hygroscopicity experiment (phase): had not changed phases
